Where two headings read alike, the source gives them in different places.

The target of experiment [1] is T1, FimH (Escherichia coli, UniProt Q1R2J4).
The target in experiment [2] is T1, FimH. The experiment in a line: cell-based. The settings on record: for EC90: read-out: HAI Titer EC90.
The target in experiment [3] is FimH (Escherichia coli, UniProt P08191). The experiment in a line: biochemical. It counts as binding, E. coli.
From the text: In order to more accurately determine the relative contributions of both binding affinity to FimH versus other compound properties to the potency seen in the cellular HA titer assay, a high-throughput fluorescence polarization (FP) (or anisotropy) competitive binding assay was developed using a fluorescent-labeled mannoside ligand shown in Scheme 4.
A fluorescent polarization assay was developed and miniaturized to monitor the direct binding of a synthesized fluorescently labeled butyl mannose derivative to the FimH receptor as well as competitive displacement by other synthetic mannosides. This fluorescent polarization assay provides a rapid method for monitoring improvements to receptor affinity during the synthetic process, as well as providing Kd binding affinity measurements.
The next experiment relates to UTI89 biofilm. The experiment in a line: UTI89 type 1 dependent biofilm formation (inhibition/prevention) assay on PVC, crystal violet. The settings on record: Escherichia coli. The format is cell-based, uropathogenic E. coli UTI89. The protocol: In yet other embodiments, activity of the compound may be measured using the ability of the compound to prevent or disrupt biofilm formation.
UTI89 biofilm was grown in LB+/− mannoside for 24 h at 22° C. in PVC plates and quantitated using crystal violet. UTI89 biofilm for confocal microscopy was grown in LB for 24 h at 22° C. on PVC coverslips. Mannoside was then added and biofilm was grown for an additional 16 h. Coverslips were then washed in PBS, fixed in 2% paraformaldehyde and stained with SYTO9 prior to confocal microscopy. For all animal experiments UTI89 or PBC-1 was grown 2×24 h statically in LB at 37° C. and inoculated at a dose of 1×10^7 bacteria in 50 μl. All mice used were female C3H/HeN (Jackson). For the pretreatment studies, bacteria were incubated with mannoside for 20 min prior to inoculation into the mouse. […] For CFU counts, bladders were harvested at 6 hpi and placed in 1 mL PBS. Bladders were then homogenized, diluted and plated on LB. After growth at 37° C. overnight, bacterial counts were determined. LacZ staining and gentamicin protection assays were performed at 6 hpi. […] Water was changed daily with fresh antibiotics. Standard growth curve assays and hemagglutination assays were performed with TMP-SMZ. All statistical analysis performed was a two-tailed Mann-Whitney U test.
Biofilm assay. UTI89 was grown in LB broth in wells of PVC microtiter plates at 23° C. in the presence of individual mannosides at varying concentrations. After 48 h of growth, wells were rinsed with water and stained with crystal violet for quantification as described. For biofilm disruption activity in PVC plates, UTI89 was grown in LB broth in wells of PVC microtiter plates at 23° C. After 24 h of growth, mannoside was added and biofilms were grown for an additional 16 h. Wells were then rinsed, stained with crystal violet and quantified. For biofilm disruption activity on PVC coverslips, UTI89 was grown in LB broth in 50 mL conicals containing PBC coverslips at 23° C. After 24 h of growth, 0.3 μM ZFH-2056 was added and biofilm was grown for an additional 16 h.
UTI89 biofilm was grown in LB+/− mannoside for 24 h at 22° C. in PVC plates and quantified using crystal violet. UTI89 biofilm for confocal microscopy was grown in LB for 24 h at 22° C. on PVC coverslips followed by mannoside treatment for 16 h. For all animal experiments UTI89 or PBC-1 was grown 2×24 h statically in LB at 37° C. and inoculated at a dose of 1×10^7 bacteria in 50 μl. All mice used were female C3H/HeN (Harlan). For the chronic UTI model, mice were infected for 2 weeks prior to treatment with mannoside. […] For oral dosing, 100 μl of 10 mg/ml (50 mg/kg) or 20 mg/ml (100 mg/kg) mannoside in 8% DMSO was inoculated with a gavage needle 30 min prior to inoculation of bacteria. […] For CFU counts, bladders were harvested at 6 hpi and placed in 1 mL PBS. Bladders were then homogenized, diluted and plated on LB. After growth at 37° C. overnight, bacterial counts were determined. LacZ staining and gentamicin protection assays were performed at 6 hpi. […] Water was changed daily with fresh antibiotics. Standard growth curve and hemagglutination assays were performed. All statistical analysis performed was a two-tailed Mann-Whitney U test. […] Compounds 7-10 were prepared using slightly modified procedures. All compounds are >95% pure as determined by HPLC/MS and ^1H NMR.
UTI89 was grown in LB broth in wells of PVC microtiter plates at 23° C. in the presence of individual mannosides at varying concentrations. After 48 h of growth, wells were rinsed with water and stained with crystal violet for quantification as described. For biofilm disruption activity in PVC plates, UTI89 was grown in LB broth in wells of PVC microtiter plates at 23° C. After 24 h of growth, mannoside was added and biofilms were grown for an additional 16 h. Wells were then rinsed, stained with crystal violet and quantified. […]

For experiment [4], the target named is T2, FimH lectin domain (residues 1-158 of UPEC J96 FimH) (Escherichia coli, UniProt P08191).
T2 construct: made in house
It counts as binding. The settings on record: Table 20; compound at 100 μM. How it is done: DSF measures the melting temperature change of protein when binding to small molecules. Melting temperature shifts are proportional to the free energy of binding, and melting temperatures increase even as ligand concentration exceeds the Kd.
FimH lectin domain (residues 1-158 of UPEC J96 FimH, without an affinity tag) was purified as described previously. Five micrograms FimH in 5 μl HBS were mixed with HBS to yield a final volume of 50 μl containing compound at a final concentration of 100 μM and a “5×” final concentration of SYPRO Orange (sold as a “5000×” stock in DMSO and mixed with HBS to a working stock of 50× immediately before use: Life Technologies Inc.; Grand Island, N.Y.). Compounds were diluted to 100 μM from stocks in DMSO and compared to matched control wells with FimH alone plus 0.2% DMSO. 50 μl reactions were placed in 96-well clear-bottom PCR plates and subjected to a melt curve from 20-90° C. in 0.5° C. increments of 15 seconds each followed by a fluorescence read of the “HEX” channel in a Bio-Rad CFX96 thermocycler (Bio-Rad, Hercules, Calif.). Melt curves were fitted to the Boltzmann equation to determine the melting temperature (Tm) (y=A2+(A1−A2)/(1+exp((x−x0)/dx)) where x0 is the Tm) using OriginPro 8 (OriginLab, Northampton Mass.).

The mark [5] stands for this setting: FP Binding EC50, Table 13, competition with FAM mannoside 20.
[6] abbreviates: FimH EC50 (μM)-June 30, June 30 determination.
Setting [7] is: read-out: Biofilm IC50 (approximated).
Setting [8] is: Table 19, Examples 30-36 numbering.
[9] abbreviates: Table 20, Examples 30-36 numbering.
The mark [10] stands for this setting: Table 18, Examples 30-36 numbering.
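Throughout, for EC90: hemagglutination inhibition of guinea pig erythrocytes agglutinated by type 1 piliated uropathogenic E. coli via FimH mannose binding, quantified through serial dilutions of compound.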
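Throughout, for HAI Titer EC>90: hemagglutination inhibition of guinea pig erythrocytes agglutinated by type 1 piliated uropathogenic E. coli via FimH mannose binding, quantified through serial dilutions of compound.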
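Throughout, for fold better HAI activity: hemagglutination inhibition of guinea pig erythrocytes agglutinated by type 1 piliated uropathogenic E. coli via FimH mannose binding, quantified through serial dilutions of compound.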
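Throughout, for fold improvement in HA titer: hemagglutination inhibition of guinea pig erythrocytes agglutinated by type 1 piliated uropathogenic E. coli via FimH mannose binding, quantified through serial dilutions of compound.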

What is called EC50 is the concentration needed to bring the measured effect to its halfway point. For the molecule `O=C(O)c1cccc(OC2OC(CO)C(O)C(O)C2O)c1` (stereo not drawn) [Compound 1ZFH216, 3-[3,4,5-trihydroxy-6-(hydroxymethyl)tetrahydropyran-2-yl]oxybenzoic acid], the “HAI Titer EC>90” value at FimH [1] is 60.000 µM. In addition, the concentration for a half-maximal effect (EC50) at FimH [2] worked out at 60000 nM.
As a reminder, the IC50 is the concentration that inhibits the measured activity by half. On to `NC(=O)c1cccc(-c2ccc(OC3OC(CO)C(O)C(O)C3O)cc2)c1` (stereo not drawn) [Compound 2ZFH32, 3-[4-[3,4,5-trihydroxy-6-(hydroxymethyl)tetrahydropyran-2-yl]oxyphenyl]benzamide], for which the “HAI Titer EC>90” value at FimH [1] worked out at 2.000 µM. In addition, the EC50 at FimH [3] (setting [5]) came out at 0.078 µM; on FimH [3] (FimH EC50), 0.057 µM; on FimH [3] (setting [6]) it was 0.136 µM; at FimH [2], 2000 nM. In the experiment on UTI89 biofilm (setting [7]), the IC50 was about 3000 nM.
The molecule `O=[N+]([O-])c1ccc(O[C@H]2O[C@H](CO)[C@@H](O)[C@H](O)[C@@H]2O)cc1` [Compound 3b] showed a 50% effective concentration (EC50) on FimH [2] of 31000 nM.
Take `COC(=O)c1cc(-c2ccc(O[C@H]3O[C@H](CO)[C@@H](O)[C@H](O)[C@@H]3O)cc2)ccn1` [Compound 12a, Methyl 4-[4-[(2R,3S,4S,5S,6R)-3,4,5-trihydroxy-6-(hydroxymethyl)tetrahydropyran-2-yl]oxyphenyl]pyridine-2-carboxylate]: the entries for the “HAI Titer EC>90” value at FimH [1] (setting [8]) and at FimH [1] (setting [9]) were 0.50 µM and 0.500 µM, respectively. The “DSF Melting Temp.” value in experiment [4] stood at 73.68 °C.
What is called EC90 is the point of the concentration-response curve where the effect stands at 90%. As for `O=C(c1cccc(-c2ccc(O[C@H]3O[C@H](CO)[C@@H](O)[C@H](O)[C@@H]3O)cc2)c1)N1CCNCC1` [Compound 10c, Piperazin-1-yl-[3-[4-[(2R,3S,4S,5S,6R)-3,4,5-trihydroxy-6-(hydroxymethyl)tetrahydropyran-2-yl]oxyphenyl]phenyl]methanone], the “HAI Titer EC>90” value on FimH [1] (setting [10]) is 4.0 µM. Besides, the EC90 on FimH [2] was 4000 nM.
Take `O=C(Nc1cccnc1)c1cccc(-c2ccc(O[C@H]3O[C@H](CO)[C@@H](O)[C@H](O)[C@@H]3O)cc2)c1` [Compound 10f, N-(3-Pyridyl)-3-[4-[(2R,3S,4S,5S,6R)-3,4,5-trihydroxy-6-(hydroxymethyl)tetrahydropyran-2-yl]oxyphenyl]benzamide]: the “HAI Titer EC>90” value on FimH [1] (setting [10]) was found to be 0.37 µM; at FimH [1] (setting [9]), 0.375 µM. In addition, the “DSF Melting Temp.” value in experiment [4] came to 72.53 °C.
Consider `CS(=O)(=O)Nc1cccc(-c2ccc(OC3OC(CO)C(O)C(O)C3O)cc2)c1` (stereo not drawn) [Compound 3ZFH166, N-[3-[4-[3,4,5-trihydroxy-6-(hydroxymethyl)tetrahydropyran-2-yl]oxyphenyl]phenyl]methanesulfonamide], for which the “HAI Titer EC>90” value at FimH [1] was 2.000 µM. Also, the half-maximal effective concentration (EC50) was 0.097 µM on FimH [3] (setting [5]) and 2000 nM on FimH [2].
For the molecule `OCC1OC(Oc2ccc(Cl)cc2)C(O)C(O)C1O` (stereo not drawn) [Compound 2ZFH178, 2-(4-chlorophenoxy)-6-(hydroxymethyl)tetrahydropyran-3,4,5-triol], on FimH [1], the “HAI Titer EC>90” value amounted to 32.000 µM. On FimH [2], this molecule came in with an EC50 of 32000 nM.
On to `COC(=O)c1ccc(OC2OC(CO)C(O)C(O)C2O)cc1` (stereo not drawn) [Compound 1ZFH53, methyl 4-[3,4,5-trihydroxy-6-(hydroxymethyl)tetrahydropyran-2-yl]oxybenzoate], for which, at FimH [1], the “HAI Titer EC>90” value worked out at 8.000 µM. The concentration for a half-maximal effect (EC50) was determined as 0.064 µM on FimH [3] (setting [5]), 0.058 µM on FimH [3] (FimH EC50), 0.0696 µM on FimH [3] (setting [6]) and 8000 nM at FimH [2]. The IC50 in the experiment on UTI89 biofilm (setting [7]) was 10000 to 100000 nM; in the experiment with UTI89 biofilm (read-out: Biofilm IC50 [calculated]), about 62000 nM.
Consider `O=C(O)c1cccc(-c2ccc(OC3OC(CO)C(O)C(O)C3O)cc2)c1` (stereo not drawn) [Compound 14c], for which the results for the EC50 on FimH [3] (setting [5]) and at FimH [2] were 0.099 µM and 4000 nM, respectively.
On to `COC(=O)c1cccc(-c2ccc(O[C@H]3O[C@H](CO)[C@@H](O)[C@H](O)[C@@H]3O)c(C)c2)c1` [Compound 4c, Methyl 3-[3-methyl-4-[(2R,3S,4S,5S,6R)-3,4,5-trihydroxy-6-(hydroxymethyl)tetrahydropyran-2-yl]oxy-phenyl]benzoate], for which, on FimH [1] (Table 17, Examples 30-36 numbering), the “HAI Titer EC>90” value turned out to be 0.12 µM. The “fold better HAI activity” value at FimH [1] (relative to matched pair 1, Examples 30-36 numbering) came out at 8 fold. Moreover, the half-inhibitory concentration (IC50) in the experiment on UTI89 biofilm (read-out: Biofilm Prevention IC50) was found to be 330 nM. For the same molecule, at FimH [2], the concentration for an effect of 90% (EC90) turned out to be 120 nM.
For the molecule `COC(=O)c1cccc(-c2ccc(OC3OC(CO)C(O)C(O)C3O)cc2)c1` (stereo not drawn) [Compound 8e], at FimH [1] (relative to 6 (4-methylumbellferyl-α-D-mannoside)), the “fold improvement in HA titer” value came out at 2 fold. Also, the “fold more potent in HA titer” value at FimH [1] (relative to Methylaman) was “greater than 1000 fold”. For the same molecule, the concentration giving a half-maximal response (EC50) turned out to be 0.052 µM on FimH [3] (setting [5]) and 1000 nM at FimH [2].
As for `COC(=O)c1sc(-c2ccc(O[C@H]3O[C@H](CO)[C@@H](O)[C@H](O)[C@@H]3O)cc2)cc1NC(N)=O` [Compound 13a, Methyl 5-[4-[(2R,3S,4S,5S,6R)-3,4,5-trihydroxy-6-(hydroxymethyl)tetrahydropyran-2-yl]oxyphenyl]-3-ureido-thiophene-2-carboxylate], the “HAI Titer EC>90” value at FimH [1] (setting [8]) amounted to 0.02 µM. For the same molecule, the EC90 at FimH [2] stood at 16 nM.
As for `NC(=O)c1ccc(OC2OC(CO)C(O)C(O)C2O)cc1` (stereo not drawn) [Compound 1ZFH157, 4-[3,4,5-trihydroxy-6-(hydroxymethyl)tetrahydropyran-2-yl]oxybenzamide], the “HAI Titer EC>90” value at FimH [1] was found to be 15.000 µM. This molecule returned an EC50 on FimH [2] of 15000 nM.
The like results for `N#Cc1ccc(OC2OC(CO)C(O)C(O)C2O)cc1` (stereo not drawn) [Compound 1ZFH65, 4-[3,4,5-6-trihydroxy-6-(hydroxymethyl)tetrahydropyran-2-yl]oxybenzonitrile] were, in that order, 30.000 µM and 30000 nM.
`OC[C@H]1O[C@H](Oc2ccccc2)[C@@H](O)[C@@H](O)[C@@H]1O` [Compound 3a, phenyl mannoside]: on FimH [2], the response was half-maximal at 30000 nM (EC50).
As for `CN1CCN(C(=O)c2cccc(-c3ccc(O[C@H]4O[C@H](CO)[C@@H](O)[C@H](O)[C@@H]4O)cc3)c2)CC1` [Compound 10d, (4-Methylpiperazin-1-yl)-[3-[4-[(2R,3S,4S,5S,6R)-3,4,5-trihydroxy-6-(hydroxymethyl)tetrahydropyran-2-yl]oxyphenyl]phenyl]methanone], on FimH [1] (setting [10]), the “HAI Titer EC>90” value came to 4.0 µM. For the same molecule, the EC90 on FimH [2] stood at 4000 nM.

The values are drawn from patent US8937167B2 (Washington University, priority 2009, dated 2015).
